According to US12577231B2, “Androgen receptor PROTACS” (GlaxoSmithKline Intellectual Property Development Limited, priority 2023, dated 2026):

Target: T1, Androgen Receptor dual T878A/L702H mutant protein (Homo sapiens, UniProt P10275, L702H/T878A)
T1 construct: host or cells: MDA-PCa-2b
T1 sequence (P10275 1-920 L702H/T878A): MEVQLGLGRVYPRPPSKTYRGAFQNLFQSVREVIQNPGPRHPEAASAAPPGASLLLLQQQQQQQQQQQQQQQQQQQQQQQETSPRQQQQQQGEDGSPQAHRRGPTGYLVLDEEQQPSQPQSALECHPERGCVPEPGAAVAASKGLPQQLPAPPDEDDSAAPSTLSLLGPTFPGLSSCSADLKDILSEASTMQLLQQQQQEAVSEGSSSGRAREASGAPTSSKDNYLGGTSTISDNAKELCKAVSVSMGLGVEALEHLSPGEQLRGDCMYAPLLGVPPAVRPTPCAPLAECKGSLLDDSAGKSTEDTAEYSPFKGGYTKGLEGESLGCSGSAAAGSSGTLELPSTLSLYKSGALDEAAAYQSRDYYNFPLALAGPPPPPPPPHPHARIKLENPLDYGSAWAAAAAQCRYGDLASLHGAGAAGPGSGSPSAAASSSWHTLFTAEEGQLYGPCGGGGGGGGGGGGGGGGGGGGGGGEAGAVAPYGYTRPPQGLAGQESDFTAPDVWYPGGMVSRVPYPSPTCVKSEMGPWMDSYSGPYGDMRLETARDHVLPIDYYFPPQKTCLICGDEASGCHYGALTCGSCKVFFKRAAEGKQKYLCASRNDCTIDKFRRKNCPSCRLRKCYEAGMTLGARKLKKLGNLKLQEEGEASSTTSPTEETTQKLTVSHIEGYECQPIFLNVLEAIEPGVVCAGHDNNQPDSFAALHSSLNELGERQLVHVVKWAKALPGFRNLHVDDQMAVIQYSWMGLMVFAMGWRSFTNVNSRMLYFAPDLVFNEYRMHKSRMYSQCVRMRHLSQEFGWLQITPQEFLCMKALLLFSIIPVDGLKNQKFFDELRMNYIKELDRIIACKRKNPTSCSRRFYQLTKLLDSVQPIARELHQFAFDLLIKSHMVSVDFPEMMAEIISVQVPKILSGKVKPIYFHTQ
Assay: Dual Mutant (T878A/L702H) Androgen Receptor Degradation Assay (HTRF, MDA-PCa-2b cells)
Assay type: cell-based
Details: 18 h, 18 h incubation, read-out: mean asymptote max
In short: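 PROTACs tested as 11-point, 3-fold dilutions on 10,000 cells for 18 h at 37 °C. Remaining AR read by HTRF (665/620 nm ratio) after lysis, normalised to DMSO-treated cells (0%) and cell-free medium (100%). Relative DC50 from 4-parameter fit inflection, absolute DC50 interpolated at 50% degradation; Dmax is maximum observed degradation.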

`CC1(C)[C@H](NC(=O)c2ccc(N3CCC(CN4CCC(n5ncc6c(N7CCC(=O)NC7=O)cc(F)cc65)CC4)CC3)c(F)c2)C(C)(C)[C@H]1Oc1ccc(C#N)c2ncccc12` [Example 38, N-((1r,3r)-3-((8-Cyanoquinolin-5-yl)oxy)-2,2,4,4-tetramethylcyclobutyl)-4-(4-((4-(4-(2,4-dioxotetrahydropyrimidin-1(2H)-yl)-6-fluoro-1H-indazol-1-yl)piperidin-1-yl)methyl)piperidin-1-yl)-3-fluorobenzamide] and `CC1(C)[C@H](NC(=O)c2ccc(N3CCC(CN4CCC(n5ccc6c(N7CCC(=O)NC7=O)cc(F)cc65)CC4)CC3)c(F)c2)C(C)(C)[C@H]1Oc1ccc(C#N)c2ncccc12` [Example 32, N-((1r,3r)-3-((8-Cyanoquinolin-5-yl)oxy)-2,2,4,4-tetramethylcyclobutyl)-4-(4-((4-(4-(2,4-dioxotetrahydropyrimidin-1(2H)-yl)-6-fluoro-1H-indol-1-yl)piperidin-1-yl)methyl)piperidin-1-yl)-3-fluorobenzamide] cannot be ordered by Dmax: ≥ 50% for the first, ≥ 50% for the second.

`CC1(C)[C@H](NC(=O)c2ccc(N3CCC(CN4CCC(n5ncc6c(N7CCC(=O)NC7=O)c(F)ccc65)CC4)CC3)c(F)c2)C(C)(C)[C@H]1Oc1ccc(C#N)c(Cl)c1` [Example 13, N-((1r,3r)-3-(3-Chloro-4-cyanophenoxy)-2,2,4,4-tetramethylcyclobutyl)-4-(4-((4-(4-(2,4-dioxotetrahydropyrimidin-1(2H)-yl)-5-fluoro-1H-indazol-1-yl)piperidin-1-yl)methyl)piperidin-1-yl)-3-fluorobenzamide] and `COc1c(C#N)ccc(O[C@H]2C(C)(C)[C@H](NC(=O)c3ccc(N4CCC(CN5CCC(n6ncc7c(N8CCC(=O)NC8=O)cccc76)CC5)CC4)c(F)c3)C2(C)C)c1C` [Example 5, N-((1r,3r)-3-(4-Cyano-3-methoxy-2-methylphenoxy)-2,2,4,4-tetramethylcyclobutyl)-4-(4-((4-(4-(2,4-dioxotetrahydropyrimidin-1(2H)-yl)-1H-indazol-1-yl)piperidin-1-yl)methyl)piperidin-1-yl)-3-fluorobenzamide] cannot be ordered by Dmax: ≥ 50% for the first, ≥ 50% for the second.

`CC1(C)[C@H](NC(=O)c2ccc(N3CCC(CN4CCC(n5ncc6c(N7CCC(=O)NC7=O)nccc65)CC4)CC3)c(F)c2)C(C)(C)[C@H]1Oc1ccc(C#N)c2ncccc12` [Example 39, N-((1r,3r)-3-((8-Cyanoquinolin-5-yl)oxy)-2,2,4,4-tetramethylcyclobutyl)-4-(4-((4-(4-(2,4-dioxotetrahydropyrimidin-1(2H)-yl)-1H-pyrazolo[4,3-c]pyridin-1-yl)piperidin-1-yl)methyl)piperidin-1-yl)-3-fluorobenzamide] and `CC1(C)[C@H](NC(=O)c2ccc(N3CCC(CN4CCC(n5ncc6c(N7CCC(=O)NC7=O)cccc65)CC4)CC3)c(F)c2)C(C)(C)[C@H]1Oc1ccc(C#N)c2ncccc12` [Example 6, N-((1r,3r)-3-((8-Cyanoquinolin-5-yl)oxy)-2,2,4,4-tetramethylcyclobutyl)-4-(4-((4-(4-(2,4-dioxotetrahydropyrimidin-1(2H)-yl)-1H-indazol-1-yl)piperidin-1-yl)methyl)piperidin-1-yl)-3-fluorobenzamide] cannot be ordered by Dmax: ≥ 50% for the first, ≥ 50% for the second.

`CC1(C)[C@H](NC(=O)c2ccc(N3CCC(CN4CCC(n5ccc6c(N7CCC(=O)NC7=O)ncnc65)CC4)CC3)c(F)c2)C(C)(C)[C@H]1Oc1ccc(C#N)c2ncccc12` [Example 47, N-((1r,3r)-3-((8-Cyanoquinolin-5-yl)oxy)-2,2,4,4-tetramethylcyclobutyl)-4-(4-((4-(4-(2,4-dioxotetrahydropyrimidin-1(2H)-yl)-7H-pyrrolo[2,3-d]pyrimidin-7-yl)piperidin-1-yl)methyl)piperidin-1-yl)-3-fluorobenzamide] and `CC1(C)[C@H](NC(=O)c2ccc(N3CCC(CN4CCC(n5ccc6c(N7CCC(=O)NC7=O)ncnc65)CC4)CC3)cc2)C(C)(C)[C@H]1Oc1ccc(C#N)c2ncccc12` [Example 28, N-((1r,3r)-3-((8-Cyanoquinolin-5-yl)oxy)-2,2,4,4-tetramethylcyclobutyl)-4-(4-((4-(4-(2,4-dioxotetrahydropyrimidin-1(2H)-yl)-7H-pyrrolo[2,3-d]pyrimidin-7-yl)piperidin-1-yl)methyl)piperidin-1-yl)benzamide] cannot be ordered by Dmax: ≥ 50% for the first, ≥ 50% for the second.

`CC1(C)[C@H](NC(=O)c2ccc(N3CCC(CN4CCC(n5ccc6c(N7CCC(=O)NC7=O)c(F)ccc65)CC4)CC3)c(F)c2)C(C)(C)[C@H]1Oc1ccc(C#N)c2ncccc12` [Example 51, N-((1r,3r)-3-((8-Cyanoquinolin-5-yl)oxy)-2,2,4,4-tetramethylcyclobutyl)-4-(4-((4-(4-(2,4-dioxotetrahydropyrimidin-1(2H)-yl)-5-fluoro-1H-indol-1-yl)piperidin-1-yl)methyl)piperidin-1-yl)-3-fluorobenzamide] and `CC1(C)[C@H](NC(=O)c2ccc(N3CCC(CN4CCC(n5ccc6c(N7CCC(=O)NC7=O)cccc65)CC4)CC3)cc2)C(C)(C)[C@H]1Oc1ccc(C#N)c2ncccc12` [Example 43, N-((1r,3r)-3-((8-Cyanoquinolin-5-yl)oxy)-2,2,4,4-tetramethylcyclobutyl)-4-(4-((4-(4-(2,4-dioxotetrahydropyrimidin-1(2H)-yl)-1H-indol-1-yl)piperidin-1-yl)methyl)piperidin-1-yl)benzamide] cannot be ordered by Dmax: ≥ 50% for the first, ≥ 50% for the second.

First: COc1cc(O[C@H]2C(C)(C)[C@H](NC(=O)c3ccc(N4CCC(CN5CC[C@@H](n6ncc7c(N8CCC(=O)NC8=O)cccc76)[C@@H](F)C5)CC4)c(F)c3)C2(C)C)ccc1C#N [Example 27, N-((1r,3r)-3-(4-Cyano-3-methoxyphenoxy)-2,2,4,4-tetramethylcyclobutyl)-4-(4-(((3,4R)-4-(4-(2,4-dioxotetrahydropyrimidin-1(2H)-yl)-1H-indazol-1-yl)-3-fluoropiperidin-1-yl)methyl)piperidin-1-yl)-3-fluorobenzamide]
Second: CC1(C)[C@H](NC(=O)c2ccc(N3CCC(CN4CC[C@@H](n5ncc6c(N7CCC(=O)NC7=O)cccc65)C4)CC3)c(F)c2)C(C)(C)[C@H]1Oc1ccc(C#N)c2ncccc12 [Example 36, N-((1r,3r)-3-((8-Cyanoquinolin-5-yl)oxy)-2,2,4,4-tetramethylcyclobutyl)-4-(4-(((R)-3-(4-(2,4-dioxotetrahydropyrimidin-1(2H)-yl)-1H-indazol-1-yl)pyrrolidin-1-yl)methyl)piperidin-1-yl)-3-fluorobenzamide]
The Dmax of the first is higher: ≥ 50% for the first, 41% for the second.

`CC1(C)[C@H](NC(=O)c2ccc(N3CCC(CN4CCC(n5ncc6c(N7CCC(=O)NC7=O)cccc65)CC4)CC3)c(Cl)c2)C(C)(C)[C@H]1Oc1ccc(C#N)c2ncccc12` [Example 44, 3-Chloro-N-((1r,3r)-3-((8-cyanoquinolin-5-yl)oxy)-2,2,4,4-tetramethylcyclobutyl)-4-(4-((4-(4-(2,4-dioxotetrahydropyrimidin-1(2H)-yl)-1H-indazol-1-yl)piperidin-1-yl)methyl)piperidin-1-yl)benzamide] and `CC1(C)[C@H](NC(=O)c2ccc(N3CC[C@@H](CN4CCC(n5ncc6c(N7CCC(=O)NC7=O)cccc65)CC4)C3)c(F)c2)C(C)(C)[C@H]1Oc1ccc(C#N)c2ncccc12` [Example 33, N-((1r,3S)-3-((8-Cyanoquinolin-5-yl)oxy)-2,2,4,4-tetramethylcyclobutyl)-4-((S)-3-((4-(4-(2,4-dioxotetrahydropyrimidin-1(2H)-yl)-1H-indazol-1-yl)piperidin-1-yl)methyl)pyrrolidin-1-yl)-3-fluorobenzamide] cannot be ordered by Dmax: ≥ 50% for the first, ≥ 50% for the second.
